Assay results taken from patent US4536571A, “Selenium-containing platinum compound” (priority 1983, dated 1985).

Tests used:
[1] = system: Cisplatin induced nephrotoxicity (blood urea nitrogen); test: BUN determination in Cisplatin-treated mice, sodium selenite dose series (Table 3); assay type: in vivo, BDF1 mice
Experimental: (§1) BUN of the mice which have been administered a platinum complex increases due to the platinum poisoning in the kidney. […] The method of negating platinum toxicity of the present invention will be illustrated in more detail by way of Examples later.
BUN of the mice was dertermined on the fourth day from the date of administration and on the eleventh day from the date of the administration. […] BUN of these control groups was also determined.

[2] = LD50 of Selenium Compounds; settings: mouse, in vivo, ip; intraperitoneal route, BDF1 male mice
Experimental: Our studies were carried out in BDF1 male mice weighing approximately 25 grams. All solutions were freshly were daily and given by the intraperitoneal route.

[3] = system: Cisplatin induced nephrotoxicity (blood urea nitrogen); test: BUN determination in Cisplatin-treated mice, sodium selenite time course (Table 2); assay type: in vivo, BDF1 mice; settings: for number of dead mice: fourth day
Experimental: as §1
(§2) Sodium selenite was administered to the peritoneal cavities of the mice at a dosage of 6.3 mg/kg. […] BUN of the mice was determined on the fourth day from the date of the administration. […] BUN of these control groups was also determined.

[4] = system: Cisplatin induced nephrotoxicity (blood urea nitrogen); test: BUN determination in Cisplatin-treated mice, sodium selenite time course (Table 1); assay type: in vivo, BDF1 mice
Experimental: as §1, §2
*^1 Average BUN value of mice which was determined on the fourth day
*^3 The figure in parentheses means the number of dead mice.

[5] = system: cadmium toxicity; settings: in vivo; cited from earlier work
[6] = system: nephrotoxic effects of Cisplatin; settings: female rats; 750 mg/kg intraperitoneally or 100 mg/kg intravenously; cited from earlier work
[7] = sodium selenite 1 mg/kg i.p. 2 hours before Cisplatin 14 mg/kg i.p.
[8] = sodium selenite 2 mg/kg i.p. 2 hours before Cisplatin 14 mg/kg i.p.
[9] = sodium selenite 4 mg/kg i.p. 2 hours before Cisplatin 14 mg/kg i.p.
[10] = sodium selenite 6 mg/kg i.p. 2 hours before Cisplatin 14 mg/kg i.p.
[11] = sodium selenite 8 mg/kg i.p. 2 hours before Cisplatin 14 mg/kg i.p.
[12] = sodium selenite 6.3 mg/kg i.p. 3 hours before Cisplatin 14 mg/kg i.p.
[13] = sodium selenite 6.3 mg/kg i.p. 4 hours before Cisplatin 14 mg/kg i.p.
[14] = sodium selenite 6.3 mg/kg i.p. 6 hours before Cisplatin 14 mg/kg i.p.
[15] = sodium selenite 6.3 mg/kg i.p. simultaneously with Cisplatin 14 mg/kg i.p.
[16] = sodium selenite 6.3 mg/kg i.p. 2 hours before Cisplatin 14 mg/kg i.p.

Structure (SMILES): O=[Se](O)O [Sodium selenite, sodium selenite]
- number of dead mice ([1]; eleventh day, sodium selenite 2 mg/kg i.p. 2 hours before Cisplatin 14 mg/kg i.p.): 1
- number of dead mice ([1]; eleventh day, sodium selenite 4 mg/kg i.p. 2 hours before Cisplatin 14 mg/kg i.p.): 2
- number of dead mice ([1]; eleventh day, sodium selenite 6 mg/kg i.p. 2 hours before Cisplatin 14 mg/kg i.p.): 1
- number of dead mice ([1]; eleventh day, sodium selenite 8 mg/kg i.p. 2 hours before Cisplatin 14 mg/kg i.p.): 1
- number of dead mice ([1]; fourth day, sodium selenite 4 mg/kg i.p. 2 hours before Cisplatin 14 mg/kg i.p.): 1
- number of dead mice ([1]; fourth day, sodium selenite 8 mg/kg i.p. 2 hours before Cisplatin 14 mg/kg i.p.): 1
- BUN (≥30) on the eleventh day, mice [1, 7]: 1/5
- BUN (≥30) on the fourth day, mice [1, 7]: 3/5
- BUN (≥30) on the eleventh day, mice [1, 8]: 0/4
- BUN (≥30) on the fourth day, mice [1, 8]: 1/5
- BUN (≥30) on the eleventh day, mice [1, 9]: 0/3
- BUN (≥30) on the fourth day, mice [1, 9]: 1/4
- BUN (≥30) on the eleventh day, mice [1, 10]: 0/4
- BUN (≥30) on the fourth day, mice [1, 10]: 1/5
- BUN (≥30) on the eleventh day, mice [1, 11]: 0/4
- BUN (≥30) on the fourth day, mice [1, 11]: 1/4
- LD50 [2]: 3.25 to 3.5 mg/kg
- number of dead mice [3, 12]: 1
- number of dead mice [3, 13]: 1
- number of dead mice [3, 14]: 1
- number of dead mice [3, 15]: 1
- BUN (≥30) on the fourth day, mice ([3]; sodium selenite 6.3 mg/kg i.p. 1 hour before Cisplatin 14 mg/kg i.p.): 3/5
- BUN (≥30) on the fourth day, mice [3, 16]: 1/5
- BUN (≥30) on the fourth day, mice [3, 12]: 1/4
- BUN (≥30) on the fourth day, mice [3, 13]: 2/4
- BUN (≥30) on the fourth day, mice [3, 14]: 2/4
- BUN (≥30) on the fourth day, mice [3, 15]: 2/4
- number of dead mice ([4]; fourth day, sodium selenite 6.3 mg/kg i.p. 2 hours before Cisplatin 14 mg/kg i.p.): 2
- BUN (≥30) on the fourth day, mice ([4]; sodium selenite 6.3 mg/kg i.p. 1 hour after Cisplatin 14 mg/kg i.p.): 5/5
- BUN (≥30) on the fourth day, mice [4, 16]: 1/3
- BUN (≥30) on the fourth day, mice [4, 13]: 4/5
- BUN (≥30) on the fourth day, mice [4, 15]: 2/5
- BUN (≥30) on the fourth day, mice ([4]; sodium selenite 6.3 mg/kg only, i.p.): 0/5

Structure (SMILES): [Se] [selenium]
- cadmium induced testicular damage [5]: prevents

Structure (SMILES): N[C@@H](C[Se][Se]C[C@H](N)C(=O)O)C(=O)O [selenocystine]
- LD50 [2]: 4 mg/kg

Structure (SMILES): CCN(CC)C(=S)[S-].[Na+] [sodium diethyldithiocarbamate]
- nephrotoxic effects of Cisplatin [6]: effectively inhibited

Structure (SMILES): O=[Se](=O)(O)O [sodium selenate]
- LD50 [2]: 5.25 to 5.75 mg/kg
